These molecules were tested against T1, Nav1.7 (or SCN9A) channel; HEK cells stably transfected with hSCN9A (Homo sapiens, UniProt Q15858) (assay: Nav1.7 block, PatchXpress 7000 automated whole-cell voltage clamp, estimated IC50 (EIC50)). Conditions: PatchXpress platform; hSCN9A HEK cells held at V1/2 of inactivation; estimated IC50.
T1 construct: expressed in transfected cells
Assay type: cell-based

T1 sequence (Q15858 whole entry): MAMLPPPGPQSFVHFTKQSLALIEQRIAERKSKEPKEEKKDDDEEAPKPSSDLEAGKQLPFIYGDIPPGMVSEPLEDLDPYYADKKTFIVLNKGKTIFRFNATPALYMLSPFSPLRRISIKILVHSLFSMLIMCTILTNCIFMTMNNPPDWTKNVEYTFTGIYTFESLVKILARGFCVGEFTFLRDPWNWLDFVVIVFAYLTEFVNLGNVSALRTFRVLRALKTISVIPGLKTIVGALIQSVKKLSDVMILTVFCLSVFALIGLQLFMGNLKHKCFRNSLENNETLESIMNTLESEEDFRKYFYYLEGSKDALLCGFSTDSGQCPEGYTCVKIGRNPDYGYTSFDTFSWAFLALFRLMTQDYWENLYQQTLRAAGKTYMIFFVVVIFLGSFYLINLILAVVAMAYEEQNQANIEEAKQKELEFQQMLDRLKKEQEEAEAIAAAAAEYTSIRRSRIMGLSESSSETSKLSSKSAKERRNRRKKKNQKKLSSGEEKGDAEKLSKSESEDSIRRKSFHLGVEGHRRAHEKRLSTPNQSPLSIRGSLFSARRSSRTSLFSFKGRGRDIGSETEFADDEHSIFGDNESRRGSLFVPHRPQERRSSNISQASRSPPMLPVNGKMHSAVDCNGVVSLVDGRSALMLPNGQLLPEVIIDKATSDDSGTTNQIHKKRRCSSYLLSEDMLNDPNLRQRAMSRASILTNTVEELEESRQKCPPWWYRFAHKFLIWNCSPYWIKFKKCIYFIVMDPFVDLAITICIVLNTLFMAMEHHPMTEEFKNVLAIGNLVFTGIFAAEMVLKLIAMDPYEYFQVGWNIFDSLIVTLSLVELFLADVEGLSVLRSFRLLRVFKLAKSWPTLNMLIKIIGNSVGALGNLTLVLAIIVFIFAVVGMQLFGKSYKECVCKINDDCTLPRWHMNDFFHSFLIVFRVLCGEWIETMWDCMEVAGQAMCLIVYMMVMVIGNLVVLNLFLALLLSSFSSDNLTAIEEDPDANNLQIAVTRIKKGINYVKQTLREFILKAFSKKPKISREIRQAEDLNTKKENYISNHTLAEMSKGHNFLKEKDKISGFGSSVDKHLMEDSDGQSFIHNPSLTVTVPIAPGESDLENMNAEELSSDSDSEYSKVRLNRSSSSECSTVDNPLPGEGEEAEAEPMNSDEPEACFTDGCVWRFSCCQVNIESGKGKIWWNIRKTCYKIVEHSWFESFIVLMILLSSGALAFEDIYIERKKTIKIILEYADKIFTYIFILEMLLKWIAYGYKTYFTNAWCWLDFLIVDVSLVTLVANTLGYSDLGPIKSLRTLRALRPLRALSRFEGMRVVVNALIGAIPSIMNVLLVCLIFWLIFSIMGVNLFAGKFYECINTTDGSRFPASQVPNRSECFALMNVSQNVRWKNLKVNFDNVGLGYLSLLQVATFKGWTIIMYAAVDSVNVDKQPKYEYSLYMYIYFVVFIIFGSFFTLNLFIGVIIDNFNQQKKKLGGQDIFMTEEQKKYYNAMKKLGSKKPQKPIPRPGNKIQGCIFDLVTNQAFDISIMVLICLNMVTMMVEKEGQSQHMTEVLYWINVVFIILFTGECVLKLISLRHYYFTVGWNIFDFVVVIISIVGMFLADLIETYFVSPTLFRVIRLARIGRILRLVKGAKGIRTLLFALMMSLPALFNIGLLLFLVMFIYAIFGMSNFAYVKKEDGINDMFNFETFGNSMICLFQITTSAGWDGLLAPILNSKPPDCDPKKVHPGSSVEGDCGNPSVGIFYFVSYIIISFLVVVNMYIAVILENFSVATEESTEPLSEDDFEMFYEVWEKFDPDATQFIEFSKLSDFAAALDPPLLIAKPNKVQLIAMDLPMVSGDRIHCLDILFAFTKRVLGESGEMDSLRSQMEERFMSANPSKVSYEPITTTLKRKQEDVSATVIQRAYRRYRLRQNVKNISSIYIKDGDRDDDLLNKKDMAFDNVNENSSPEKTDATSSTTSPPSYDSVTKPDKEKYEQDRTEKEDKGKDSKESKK

IC50	Molecule
2280 nM	N#Cc1cc(S(=O)(=O)Nc2ncns2)ccc1Oc1cc(C(F)(F)F)nn1-c1ccc(F)c(F)c1 [Example 59, 3-cyano-4-{[1-(3,4-difluorophenyl)-3-(trifluoromethyl)-1H-pyrazol-5-yl]oxy}-N-1,2,4-thiadiazol-5-ylbenzenesulfonamide]
630 nM	O=S(=O)(Nc1ncns1)c1ccc(Oc2cc(C(F)(F)F)nn2-c2cc(F)ccc2F)c(F)c1 [Example 253, 4-[2-(2,5-difluoro-phenyl)-5-trifluoromethyl-2H-pyrazol-3-yloxy]-3-fluoro-N-1,2,4-thiadiazol-5-yl-benzenesulfonamide]
90 nM	CCn1nc(C(F)(F)F)cc1-c1ccc(Oc2ccc(S(=O)(=O)Nc3nccs3)cc2C#N)cc1 [Example 280, 3-cyano-4-[4-(2-ethyl-5-trifluoromethyl-2H-pyrazol-3-yl)-phenoxy]-N-thiazol-2-yl-benzenesulfonamide]
890 nM	N#Cc1cc(S(=O)(=O)Nc2ncc(Cl)s2)ccc1Oc1ccccc1-c1ccccc1 [Example 146, 4-(biphenyl-2-yloxy)-N-(5-chloro-1,3-thiazol-2-yl)-3-cyanobenzenesulfonamide]
2090 nM	N#Cc1cc(S(=O)(=O)Nc2nccs2)ccc1Oc1ccccc1-c1nnco1 [Example 173, 4-(2-(1,3,4-oxadiazol-2-yl)phenoxy)-3-cyano-N-(thiazol-2-yl)benzenesulfonamide]
180 nM	Cn1nc(C(F)(F)F)cc1-c1ccc(Oc2ccc(S(=O)(=O)Nc3nccs3)cc2C#N)cc1 [Example 282, 3-cyano-4-[4-(2-methyl-5-trifluoromethyl-2H-pyrazol-3-yl)-phenoxy]-N-thiazol-2-yl-benzenesulfonamide]
760 nM	O=S(=O)(Nc1nccs1)c1ccc(Oc2cnn(Cc3ccc(Cl)cc3)c2)c(F)c1 [Example 235, 4-(1-(4-chlorobenzyl)-1H-pyrazol-4-yloxy)-3-fluoro-N-(thiazol-2-yl)benzenesulfonamide]
3410 nM	CC(C)c1nn(-c2ccccc2Cl)cc1Oc1ccc(S(=O)(=O)Nc2ncc(Cl)s2)cc1C#N [Example 140, 4-{[1-(2-chlorophenyl)-3-isopropyl-1H-pyrazol-4-yl]oxy}-N-(5-chloro-1,3-thiazol-2-yl)-3-cyanobenzenesulfonamide]
3110 nM	Cc1cc(-c2ccccc2Oc2ccc(S(=O)(=O)Nc3nccs3)cc2F)sn1 [Example 128, 3-fluoro-4-[2-(3-methylisothiazol-5-yl)phenoxy]-N-1,3-thiazol-2-ylbenzenesulfonamide]
>10000 nM	N#Cc1cc(S(=O)(=O)Nc2nccs2)ccc1Oc1ccccc1-c1nncn1-c1ccccc1 [Example 181, 3-cyano-4-(2-(4-phenyl-4H-1,2,4-triazol-3-yl)phenoxy)-N-(thiazol-2-yl)benzenesulfonamide]

Same assay, conditions: estimated IC50; hSCN9A HEK cells, PatchXpress platform; Examples 283-814

Molecule	IC50
CCn1nc(C2CC2)cc1-c1ccc(Oc2ccc(S(=O)(=O)Nc3nccs3)cc2C#N)cc1 [Example 369, 3-cyano-4-[4-(3-cyclopropyl-1-ethyl-1H-pyrazol-5-yl)phenoxy]-N-1,3-thiazol-2-ylbenzenesulfonamid]	490 nM
Cc1ccc(-c2ccnn2C)c(Oc2ccc(S(=O)(=O)Nc3nccs3)cc2C#N)c1 [Example 543, 3-cyano-4-[5-methyl-2-(1-methyl-1H-pyrazol-5-yl)phenoxy]-N-1,3-thiazol-2-ylbenzenesulfonamide]	66 nM
COc1cc(-c2cc(Cl)ccc2Oc2ccc(S(=O)(=O)Nc3nccs3)cc2C#N)n(C)n1 [Example 439, 4-[4-chloro-2-(3-methoxy-1-methyl-1H-pyrazol-5-yl)phenoxy]-3-cyano-N-1,3-thiazol-2-ylbenzenesulfonamide]	490 nM
Nc1cccc(-c2cc(Cl)ccc2Oc2cc(F)c(S(=O)(=O)Nc3ncns3)cc2F)n1 [Example 409, 4-[2-(6-aminopyridin-2-yl)-4-chlorophenoxy]-2,5-difluoro-N-1,2,4-thiadiazol-5-ylbenzenesulfonamide]	19 nM
CN(C)Cc1cnn(-c2ccc(Oc3ccc(S(=O)(=O)Nc4nccs4)cc3C#N)cc2)c1 [Example 377, 3-cyano-4-(4-{4-[(dimethylamino)methyl]-1H-pyrazol-1-yl}phenoxy)-N-1,3-thiazol-2-ylbenzenesulfonamide]	>1000 nM
Cc1cnsc1-c1ccccc1Oc1ccc(S(=O)(=O)Nc2ccc(F)cn2)cc1C#N [Example 577, 3-cyano-N-(5-fluoropyridin-2-yl)-4-[2-(4-methylisothiazol-5-yl)phenoxy]benzenesulfonamide]	11000 nM
Nc1cc(-c2cc(C(F)(F)F)ccc2Oc2cc(F)c(S(=O)(=O)Nc3ncns3)cc2F)ccn1 [Example 556, 4-[2-(2-aminopyridin-4-yl)-4-(trifluoromethyl)phenoxy]-2,5-difluoro-N-1,2,4-thiadiazol-5-ylbenzenesulfonamide]	2.3 nM
4-[2-(2-aminopyridin-4-yl)-4-(trifluoromethoxy)phenoxy]-2,5-difluoro-N-1,2,4-thiadiazol-5-ylbenzenesulfonamide [Example 552]	2.4 nM
N#Cc1cc(S(=O)(=O)Nc2ccc(F)cn2)ccc1Oc1ccc(-c2cocn2)cc1 [Example 581, 3-cyano-N-(5-fluoropyridin-2-yl)-4-[4-(1,3-oxazol-4-yl)phenoxy]benzenesulfonamide]	>3000 nM
N#Cc1cc(S(=O)(=O)Nc2ccc(F)cn2)ccc1Oc1ccc(Cl)cc1-c1cn[nH]c1 [Example 314, 4-[4-chloro-2-(1H-pyrazol-4-yl)phenoxy]-3-cyano-N-(5-fluoropyridin-2-yl)benzenesulfonamide]	730 nM
Cn1nccc1-c1cc(Cl)ccc1Oc1cc(F)c(S(=O)(=O)Nc2nccs2)cc1Cl [Example 304, 5-chloro-4-[4-chloro-2-(1-methyl-1H-pyrazol-5-yl)phenoxy]-2-fluoro-N-1,3-thiazol-2-ylbenzenesulfonamide]	25 nM
Cn1nccc1-c1cc(Cl)ccc1Oc1ccc(S(=O)(=O)Nc2ncc(Cl)cn2)cc1C#N [Example 464, 4-[4-chloro-2-(1-methyl-1H-pyrazol-5-yl)phenoxy]-N-(5-chloropyrimidin-2-yl)-3-cyanobenzenesulfonamide]	6000 nM
N#Cc1cc(S(=O)(=O)Nc2ccc(F)cn2)ccc1Oc1ccccc1-c1ccccc1 [Example 366, 4-(biphenyl-2-yloxy)-3-cyano-N-(5-fluoropyridin-2-yl)benzenesulfonamide]	4800 nM

The remaining lines, values ahead:

IC50	Molecule
110 nM	Cc1ccccc1-c1cc(Cl)ccc1Oc1ccc(S(=O)(=O)Nc2nccs2)cc1C#N [Example 692, 4-[(5-chloro-2′-methylbiphenyl-2-yl)oxy]-3-cyano-N-1,3-thiazol-2-ylbenzenesulfonamide]
140 nM	N#Cc1cc(S(=O)(=O)Nc2ncc(Cl)s2)ccc1Oc1ccc(Cl)cc1-c1ccnc(CO)c1 [Example 586, 4-{4-Chloro-2-[2-(hydroxymethyl)pyridin-4-yl]phenoxy}-N-(5-chloro-1,3-thiazol-2-yl)-3-cyanobenzenesulfonamide]
2.1 nM	O=S(=O)(Nc1ncns1)c1cc(F)c(Oc2ccc(C(F)(F)F)cc2-c2ccn[nH]2)cc1F [Example 789, 2,5-difluoro-4-[2-(1H-pyrazol-5-yl)-4-(trifluoromethyl)phenoxy]-N-1,2,4-thiadiazol-5-ylbenzenesulfonamide]
16 nM	O=S(=O)(Nc1ncns1)c1cc(F)c(Oc2ccc(Cl)cc2-c2ccn[nH]2)cc1F [Example 637, 4-[4-Chloro-2-(1H-pyrazol-5-yl)phenoxy]-2,5-difluoro-N-1,2,4-thiadiazol-5-ylbenzenesulfonamide]
31000 nM	Cn1nccc1-c1cc(Cl)ccc1Oc1ccc(S(=O)(=O)Nc2ccc(C(F)(F)F)cn2)cc1C#N [Example 772, 4-[4-chloro-2-(1-methyl-1H-pyrazol-5-yl)phenoxy]-3-cyano-N-[5-(trifluoromethyl)pyridin-2-yl]benzenesulfonamide]
6.9 nM	O=S(=O)(Nc1ncns1)c1cc(Cl)c(Oc2cc(F)ccc2-c2ccn[nH]2)cc1F [Example 773, 5-chloro-2-fluoro-4-[5-fluoro-2-(1H-pyrazol-5-yl)phenoxy]-N-1,2,4-thiadiazol-5-ylbenzenesulfonamide]
400 nM	N#Cc1cc(S(=O)(=O)Nc2nccs2)ccc1Oc1ccc(-n2nc(C(F)F)cc2CO)cc1 [Example 708, 3-cyano-4-{4-[3-(difluoromethyl)-5-(hydroxymethyl)-1H-pyrazol-1-yl]phenoxy}-N-1,3-thiazol-2-ylbenzenesulfonamide]
2900 nM	Cn1nc(C(F)(F)F)cc1-c1ccc(Oc2ccc(S(=O)(=O)Nc3nccs3)cc2C#N)cn1 [Example 647, 3-cyano-4-({6-[1-methyl-3-(trifluoromethyl)-1H-pyrazol-5-yl]pyridin-3-yl}oxy)-N-1,3-thiazol-2-ylbenzenesulfonamide]

Same assay, conditions: estimated IC50; hSCN9A HEK cells, PatchXpress platform; Examples 815-1040

IC50	Molecule
2700 nM	Cn1nccc1-c1cc(Cl)ccc1Oc1ccc(S(=O)(=O)Nc2ncns2)cn1 [Example 950, 6-[4-chloro-2-(1-methyl-1H-pyrazol-5-yl)phenoxy]-N-1,2,4-thiadiazol-5-ylpyridine-3-sulfonamide]
7100 nM	N#Cc1cc(S(=O)(=O)Nc2ccc(F)cn2)ccc1Oc1ccc(F)cc1C1CC1 [Example 1004, 3-cyano-4-(2-cyclopropyl-4-fluorophenoxy)-N-(5-fluoropyridin-2-yl)benzenesulfonamide]
760 nM	CCOC(=O)c1cnn(-c2ccc(Oc3ccc(S(=O)(=O)Nc4nccs4)cc3C#N)cc2)c1 [Example 996, ethyl 1-(4-{2-cyano-4-[(1,3-thiazol-2-ylamino)sulfonyl]phenoxy}phenyl)-1H-pyrazole-4-carboxylate]
350 nM	N#Cc1cc(S(=O)(=O)Nc2ncns2)ccc1Oc1ccc(Cl)cc1-c1cccc(CN2CC(F)(F)C2)n1 [Example 874, 4-(4-chloro-2-{6-[(3,3-difluoroazetidin-1-yl)methyl]pyridin-2-yl}phenoxy)-3-cyano-N-1,2,4-thiadiazol-5-ylbenzenesulfonamide]
260 nM	Cn1nccc1-c1cc(Cl)ccc1Oc1ccc(S(=O)(=O)Nc2ncccn2)cc1C#N [Example 881, 4-[4-chloro-2-(1-methyl-1H-pyrazol-5-yl)phenoxy]-3-cyano-N-pyrimidin-2-ylbenzenesulfonamide]

From patent publication US8541588B2, “Sulfonamide derivatives” (Pfizer Limited, priority 2009, dated 2013)
